Assay results published in patent publication US20250382303A1, “NOVEL COMPOUND AS NADPH OXIDASE 2 INHIBITOR AND PHARMACEUTICAL COMPOSITION CONTAINING SAME” (DONGGUK UNIVERSITY INDUSTRY-ACADEMIC COOPERATION FOUNDATION, priority 2022, published 2025).

Experiments:
NOX2 = biological target: T1, NOX2 (Homo sapiens, UniProt P04839); experiment: NOX2 activity assay: PMA-induced ROS in ATRA-differentiated HL-60 cells (WST-1 or Amplex Red/HRP probe); format: cell-based; settings: for IC50: WST-1 probe, differentiated HL-60, 200 ng/mL PMA, read-out: Inhibitory ability (NOX2)
T1 construct: Used for the NOX2 activity assay was human leukemia 60 cells (HL-60), which are widely, universally used to assess NOX2 activity; endogenous in cells
T1 sequence (P04839 2-570 limits assumed): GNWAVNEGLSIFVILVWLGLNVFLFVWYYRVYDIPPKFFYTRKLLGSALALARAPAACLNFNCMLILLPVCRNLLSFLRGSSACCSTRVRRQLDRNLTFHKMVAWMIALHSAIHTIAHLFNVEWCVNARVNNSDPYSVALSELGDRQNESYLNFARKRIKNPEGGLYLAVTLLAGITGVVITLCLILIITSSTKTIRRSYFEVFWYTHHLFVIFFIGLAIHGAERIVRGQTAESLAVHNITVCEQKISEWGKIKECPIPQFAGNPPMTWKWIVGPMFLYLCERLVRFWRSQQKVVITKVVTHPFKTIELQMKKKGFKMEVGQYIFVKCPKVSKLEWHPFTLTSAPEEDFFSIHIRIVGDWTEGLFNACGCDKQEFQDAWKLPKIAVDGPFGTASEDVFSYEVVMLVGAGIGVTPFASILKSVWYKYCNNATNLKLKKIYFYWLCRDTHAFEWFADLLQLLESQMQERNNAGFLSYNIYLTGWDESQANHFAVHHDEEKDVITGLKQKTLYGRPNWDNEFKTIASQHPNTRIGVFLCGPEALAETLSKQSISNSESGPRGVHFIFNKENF
T1 sequence (P13498 2-195 partner limits assumed): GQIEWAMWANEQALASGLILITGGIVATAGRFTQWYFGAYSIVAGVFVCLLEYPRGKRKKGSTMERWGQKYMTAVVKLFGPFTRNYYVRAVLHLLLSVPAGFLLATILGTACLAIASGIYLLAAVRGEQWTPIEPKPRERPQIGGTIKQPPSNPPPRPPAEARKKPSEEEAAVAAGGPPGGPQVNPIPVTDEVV
How it was run: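 HL-60 cells differentiated with ATRA for 4 days, seeded at 3×10^4 cells/well and preincubated with compound for 60 min at 37 °C. ROS from 200 ng/mL PMA stimulation was followed for 60 min at 37 °C by WST-1 absorbance (450 nm) or Amplex Red/HRP fluorescence (Ex 560/Em 585 nm); DMSO vehicle control.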

[1] = Non-specific free radical scavenging: superoxide produced by xanthine/xanthine oxidase, measured by WST-1; format: biochemical; settings: compound at 10 or 30 μM
Description: The scavenging activity that the effective compound in 10 or 30 μM scavenges the superoxide produced by xanthine/xanthine oxidase was measured by WST-1, the results of which are shown in Table 2.

IC50 (NOX2) [µM] | NOX2 inhibitory ability, verbal rating (NOX2; WST-1, comment on Table 1) | SMILES | scavenging of superoxide produced by xanthine/xanthine oxidase [1]
1 to 10 | – | CC12CC(NC(=O)N1c1cccc(C(=O)N3CCc4ccccc4C3)c1)c1ccccc1O2 (racemic) [Compound 8a, 2-Methyl-3-(3-(1,2,3,4-tetrahydroisoquinoline-2-carbonyl)phenyl)-5,6-dihydro-2H-2,6-methanobenzo[g][1,3,5]oxadiazocin-4(3H)-one] | did not exhibit significant peroxide scavenging ability
1 to 10 | – | CC1(C)CN(C(=O)c2cccc(N3C(=O)NC4CC3(C)Oc3ccc(-c5ccoc5)cc34)c2)Cc2ccccc21 (stereo not drawn) [Compound 28i, 3-(3-(4,4-Dimethyl-1,2,3,4-tetrahydroisoquinoline-2-carbonyl)phenyl)-8-(furan-3-yl)-2-methyl-5,6-dihydro-2H-2,6-methanobenzo[g][1,3,5]oxadiazocin-4(3H)-one] | –
> 10 | excellent inhibitory ability | CC12CC(NC(=O)N1c1cccc(C(=O)N3CCc4ccccc4C3(C)C)c1)c1cc(-c3ccoc3)ccc1O2 (stereo not drawn) [Compound 28j, 3-(3-(1,1-Dimethyl-1,2,3,4-tetrahydroisoquinoline-2-carbonyl)phenyl)-8-(furan-3-yl)-2-methyl-5,6-dihydro-2H-2,6-methanobenzo[g][1,3,5]oxadiazocin-4(3H)-one] | –
> 10 | – | CC12CC(NC(=O)N1c1cccc(C(=O)N3CCc4ncccc4C3)c1)c1cc(-c3ccoc3)ccc1O2 (stereo not drawn) [Compound 28k, 8-(Furan-3-yl)-2-methyl-3-(3-(5,6,7,8-tetrahydro-1,6-naphthyridine-6-carbonyl)phenyl)-5,6-dihydro-2H-2,6-methanobenzo[g][1,3,5]oxadiazocin-4(3H)-one] | –
